Assay results reported in patent publication US11859205B2, “Medium for culturing stem cells” (AJINOMOTO CO., INC., priority 2013, dated 2024).

What was measured:
iPS cells = assay: Viable iPS cell number with purified albumin re-carrying fatty acid (Example 4, FIG. 4); type: cell-based, human; conditions: fatty acid re-adsorbed to albumin, 1 week
Method: Proliferative effect of various test compounds on induced pluripotent stem cell (iPS cell) was evaluated. As the iPS cell, 201B7 strain purchased from iPS Academia Japan, Inc. was used. Cell culture was performed under conditions of 5% CO2/37° C. and using a culture vessel (Nippon Becton Dickinson Company, Ltd., Falconculture petri dish or Falconculture plate) coated with a basal membrane matrix.
Various test compounds were added at given concentrations to a medium of “E8” composition (disclosed in Nature Methods, 2011, 8, 424-429, which is incorporated herein by reference in its entirety) currently considered to be the minimum composition for cultivating human pluripotent stem cells, and used for culture, from which the effect was studied.
The solution was shaken at 37° C. for 7 hours, left standing at 4° C. overnight, and filtered with a 0.22 μm syringe filter. […] The mixture was added to a medium such that the final concentration of albumin was 2.6 g/L.
The final concentration in and the amount of addition to the medium are also the same.
Using the medium produced as mentioned above, the influence of each fatty acid on the proliferation of iPS cells was studied. A 6-well plate coated with a fragment containing an active domain of laminin 511 at 5 μg/well (iMatrix-511 (Nippi, Incorporated)) as a basal membrane matrix was used. iPS cells were single-cell seeded at 13,000 cells/well and cultured for 1 week. Y-27632 (NACALAI TESQUE, INC.: 08945-84) was added at a final concentration of 10 μM only to a medium to be used for seeding. As a positive control, iPS cells were cultured using an albumin free of re-adsorption of fatty acid, i.e., albumin after a fatty acid removal treatment.
The cells were detached from each well by TrypLE Select (Life Technologies: 12563-011), and the number of the viable cells was measured.

stem cells = conditions: WO 2013/006675; cited from earlier work
[1] = final concentration in medium 28 μM
[2] = final concentration in medium 57 μM

Row | SMILES | effect on proliferation of iPS cells (number of viable cells) (iPS cells; [1]) | effect on proliferation of iPS cells (number of viable cells) (iPS cells; [2]) | effect on culture of stem cells (stem cells)
1 | CCCCC/C=C\C/C=C\C/C=C\C/C=C\CCCC(=O)O [arachidonic acid] | the cells died | the cells died | 
2 | CCCCC/C=C\C/C=C\CCCCCCCC(=O)O [linoleic acid] | markedly suppressed | the cells died | 
3 | CCCCCCCC(=O)O [octanoic acid] |  |  | harmful
4 | CCCCCCCC/C=C\CCCCCCCC(=O)O [oleic acid] | smaller than that of the positive control | smaller than that of the positive control | 
5 | CCCCCCCCCCCCCCCC(=O)O [palmitic acid] | the cells died | the cells died | 
6 | CCCCCCCCCCCCCCCCCC(=O)O [stearic acid] | the cells died | the cells died | 
